The target in series [1] is T1, Collagenase 3 (Homo sapiens, UniProt P45452). As to the kind of experiment: Inhibition of recombinant human MMP13 (104 to 274 residues) using Mca-Pro-Leu-Gly-Leu-Dpa-Ala-Arg-NH2 expressed in Escherichia coli expression system as substrate incubated for 15 mins followed by substrate addition and measured after 2 to 4 hrs by fluorescence based assay.
The test system of series [2] is SN-56. Kind of series: Neuroprotective activity against H2O2-induced cytotoxicity in mouse SN-56 cells assessed as increase in cell viability at 10 to 100 uM incubated for 24 hrs by MTT assay. Type of series: functional, cell-based. Conditions: dose 10-100 µM. For orientation: Tetrazolium assays rely on reduction of a dye to a coloured formazan, in cell work by metabolically active cells.

Series [3] in a line: Neuroprotective activity against H2O2-induced lipid peroxidation in mouse SN-56 cells assessed as increase in MDA level at 1 to 150 uM incubated for 24 hrs by lipid peroxidation MDA assay kit method relative to control. Conditions: dose 1-150 µM. In kind it is functional.
For series [4], the target named is T2, 72 kDa type IV collagenase (Homo sapiens, UniProt P08253). Kind of series: Inhibition of recombinant human MMP2 (110 to 452 residues) using Mca-Pro-Leu-Gly-Leu-Dpa-Ala-Arg-NH2 expressed in yeast expression system as substrate incubated for 15 mins followed by substrate addition and measured after 2 to 4 hrs by fluorescence based assay.
Target sequence in this assay (P08253 whole entry, the tested form may be a part): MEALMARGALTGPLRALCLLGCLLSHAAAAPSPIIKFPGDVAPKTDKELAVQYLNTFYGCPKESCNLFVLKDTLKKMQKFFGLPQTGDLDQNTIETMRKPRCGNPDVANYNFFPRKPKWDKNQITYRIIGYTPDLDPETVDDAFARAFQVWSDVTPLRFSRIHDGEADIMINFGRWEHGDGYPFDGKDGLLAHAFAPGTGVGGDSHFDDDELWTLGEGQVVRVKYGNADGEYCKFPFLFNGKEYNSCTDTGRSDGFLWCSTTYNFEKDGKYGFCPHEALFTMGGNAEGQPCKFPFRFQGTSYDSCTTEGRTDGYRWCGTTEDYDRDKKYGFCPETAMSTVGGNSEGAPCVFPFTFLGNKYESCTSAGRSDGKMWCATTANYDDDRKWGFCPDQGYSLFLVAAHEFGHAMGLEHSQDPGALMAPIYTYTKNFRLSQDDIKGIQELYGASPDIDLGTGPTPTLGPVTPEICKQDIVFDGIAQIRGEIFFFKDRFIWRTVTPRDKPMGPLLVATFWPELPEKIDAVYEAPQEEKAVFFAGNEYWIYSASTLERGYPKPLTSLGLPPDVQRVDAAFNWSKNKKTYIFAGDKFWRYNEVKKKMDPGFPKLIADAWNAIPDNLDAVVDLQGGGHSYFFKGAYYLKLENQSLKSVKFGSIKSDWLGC
The test system of series [5] is SN-56. Kind of series: Neuroprotective activity against H2O2-induced lipid peroxidation in mouse SN-56 cells assessed as increase in MDA level incubated for 24 hrs by lipid peroxidation MDA assay kit method. Type of series: functional, cell-based.
Series [6] addresses T3, Neutrophil collagenase (Homo sapiens, UniProt P22894). Kind of series: Inhibition of recombinant human MMP8 (99 to 269 residues) using Mca-Pro-Leu-Gly-Leu-Dpa-Ala-Arg-NH2 expressed in Escherichia coli expression system as substrate incubated for 15 mins followed by substrate addition and measured after 2 to 4 hrs by fluorescence based assay.
Target sequence in this assay (P22894 whole entry, the tested form may be a part): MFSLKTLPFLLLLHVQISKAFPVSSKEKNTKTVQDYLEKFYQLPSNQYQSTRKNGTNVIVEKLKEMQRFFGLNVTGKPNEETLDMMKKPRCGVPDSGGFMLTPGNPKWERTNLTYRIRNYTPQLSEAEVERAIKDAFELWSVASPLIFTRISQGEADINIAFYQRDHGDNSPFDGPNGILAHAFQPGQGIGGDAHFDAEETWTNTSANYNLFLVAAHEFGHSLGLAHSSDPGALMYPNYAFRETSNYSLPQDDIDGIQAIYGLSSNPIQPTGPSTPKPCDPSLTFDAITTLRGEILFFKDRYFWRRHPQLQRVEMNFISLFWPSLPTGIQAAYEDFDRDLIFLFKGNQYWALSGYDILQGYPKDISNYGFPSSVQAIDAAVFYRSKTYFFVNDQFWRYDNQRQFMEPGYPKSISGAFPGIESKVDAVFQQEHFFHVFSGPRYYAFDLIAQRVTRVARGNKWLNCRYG
Series [7] deals with T4, Matrix metalloproteinase-9 (Homo sapiens, UniProt P14780). As to the kind of experiment: Inhibition of recombinant human MMP9 (107 to 449 residues) using Mca-Pro-Leu-Gly-Leu-Dpa-Ala-Arg-NH2 expressed in Escherichia coli expression system as substrate incubated for 15 mins followed by substrate addition and measured after 2 to 4 hrs by fluorescence based assay.
T4 sequence (P14780 whole entry, the tested form may be a part): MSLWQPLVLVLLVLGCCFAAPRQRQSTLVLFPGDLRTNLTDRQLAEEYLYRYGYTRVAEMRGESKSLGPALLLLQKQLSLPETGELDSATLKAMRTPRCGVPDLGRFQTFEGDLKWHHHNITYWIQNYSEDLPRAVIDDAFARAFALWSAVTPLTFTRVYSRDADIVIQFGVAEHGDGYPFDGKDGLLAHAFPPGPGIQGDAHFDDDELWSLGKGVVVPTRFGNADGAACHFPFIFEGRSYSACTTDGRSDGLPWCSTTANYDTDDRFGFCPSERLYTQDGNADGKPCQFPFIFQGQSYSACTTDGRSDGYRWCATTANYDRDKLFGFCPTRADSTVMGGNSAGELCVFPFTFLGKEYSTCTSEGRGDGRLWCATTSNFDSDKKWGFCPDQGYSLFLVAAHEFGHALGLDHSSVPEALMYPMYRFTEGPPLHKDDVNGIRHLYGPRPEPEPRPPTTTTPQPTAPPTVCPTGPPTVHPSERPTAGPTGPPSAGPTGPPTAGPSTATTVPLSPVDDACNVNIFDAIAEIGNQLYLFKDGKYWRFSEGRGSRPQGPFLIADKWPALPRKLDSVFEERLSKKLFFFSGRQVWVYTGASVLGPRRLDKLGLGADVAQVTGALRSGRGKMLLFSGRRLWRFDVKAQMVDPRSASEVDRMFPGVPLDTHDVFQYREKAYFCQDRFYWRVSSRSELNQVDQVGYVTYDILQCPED
The nature of series [8]: Cytotoxicity against mouse SN-56 cells assessed as reduction in cell viability upto 100 uM incubated for 24 hrs by MTT assay. Type of series: cell-based. Conditions: sn-56, 24 h.
Series [9] has as its target T1, Collagenase 3. Kind of series: Non-competitive inhibition of recombinant human MMP13 (104 to 274 residues) using Mca-Pro-Leu-Gly-Leu-Dpa-Ala-Arg-NH2 expressed in Escherichia coli expression system as substrate at 100 uM incubated for 15 mins followed by substrate addition and measured after 2 to 4 hrs by fluorescence based assay relative to control. Conditions: time 2-4.25 hrs.

In series [10] the test system is SN-56. As to the kind of experiment: Neuroprotective activity against H2O2-induced lipid peroxidation in mouse SN-56 cells assessed as increase in MDA level at 100 uM incubated for 24 hrs by lipid peroxidation MDA assay kit method. Type of series: functional, cell-based.
In series [11] the target is T2, 72 kDa type IV collagenase. Kind of series: Non-competitive inhibition of recombinant human MMP2 (110 to 452 residues) using Mca-Pro-Leu-Gly-Leu-Dpa-Ala-Arg-NH2 expressed in yeast expression system as substrate by fluorescence based Dixon plot. The following applies: time 2-4 hrs.
Target sequence in this assay (P08253 110-660 limits assumed): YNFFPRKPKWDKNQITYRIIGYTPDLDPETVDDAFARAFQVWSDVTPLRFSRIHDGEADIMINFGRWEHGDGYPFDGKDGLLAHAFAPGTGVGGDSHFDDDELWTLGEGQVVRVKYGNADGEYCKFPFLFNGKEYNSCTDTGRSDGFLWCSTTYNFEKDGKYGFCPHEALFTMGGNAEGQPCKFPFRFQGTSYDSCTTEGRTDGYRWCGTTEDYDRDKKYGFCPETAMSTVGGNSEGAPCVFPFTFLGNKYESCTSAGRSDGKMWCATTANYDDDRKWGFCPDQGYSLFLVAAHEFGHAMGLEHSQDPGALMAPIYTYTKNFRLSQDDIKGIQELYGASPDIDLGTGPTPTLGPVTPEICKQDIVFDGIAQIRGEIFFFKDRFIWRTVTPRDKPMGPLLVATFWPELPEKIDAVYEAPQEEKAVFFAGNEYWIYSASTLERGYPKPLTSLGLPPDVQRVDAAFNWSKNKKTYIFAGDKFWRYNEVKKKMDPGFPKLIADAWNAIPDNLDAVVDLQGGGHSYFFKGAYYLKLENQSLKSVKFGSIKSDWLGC
Series [12] addresses T4, Matrix metalloproteinase-9. Kind of series: Non-competitive inhibition of recombinant human MMP9 (107 to 449 residues) using Mca-Pro-Leu-Gly-Leu-Dpa-Ala-Arg-NH2 expressed in Escherichia coli expression system as substrate by substrate by fluorescence based Michaelis-Menten analysis. The following applies: time 2-4 hrs.
In series [13] the target is T2, 72 kDa type IV collagenase. Kind of series: Non-competitive inhibition of recombinant human MMP2 (110 to 452 residues) using Mca-Pro-Leu-Gly-Leu-Dpa-Ala-Arg-NH2 expressed in yeast expression system as substrate by fluorescence based Lineweaver-Burk plot. Conditions: time 2-4 hrs.
Target sequence in this assay (P08253 110-660 limits assumed): as above
Series [14] concerns the target T3, Neutrophil collagenase. As to the kind of experiment: Non-competitive inhibition of recombinant human MMP8 (99 to 269 residues) using Mca-Pro-Leu-Gly-Leu-Dpa-Ala-Arg-NH2 expressed in Escherichia coli expression system as substrate by substrate by fluorescence based Michaelis-Menten analysis. Conditions: time 2-4 hrs.
Target sequence in this assay (P22894 101-467 limits assumed): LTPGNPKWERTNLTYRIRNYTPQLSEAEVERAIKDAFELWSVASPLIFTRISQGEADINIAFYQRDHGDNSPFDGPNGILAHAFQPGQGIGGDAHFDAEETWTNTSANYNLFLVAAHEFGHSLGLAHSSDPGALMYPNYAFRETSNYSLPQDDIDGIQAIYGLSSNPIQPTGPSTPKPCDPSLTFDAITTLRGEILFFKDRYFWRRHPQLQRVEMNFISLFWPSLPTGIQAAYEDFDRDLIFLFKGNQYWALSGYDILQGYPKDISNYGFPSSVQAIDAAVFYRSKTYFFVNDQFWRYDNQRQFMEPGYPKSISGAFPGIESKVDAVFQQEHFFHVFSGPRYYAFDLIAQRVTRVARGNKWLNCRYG
The target of series [15] is T1, Collagenase 3. Kind of series: Non-competitive inhibition of recombinant human MMP13 (104 to 274 residues) using Mca-Pro-Leu-Gly-Leu-Dpa-Ala-Arg-NH2 expressed in Escherichia coli expression system as substrate by fluorescence based Lineweaver-Burk plot assay. The following applies: time 2-4 hrs.
For series [16], the target named is T3, Neutrophil collagenase. Kind of series: Non-competitive inhibition of recombinant human MMP8 (99 to 269 residues) using Mca-Pro-Leu-Gly-Leu-Dpa-Ala-Arg-NH2 expressed in Escherichia coli expression system as substrate by substrate by fluorescence based Dixon plot. The following applies: time 2-4 hrs.
Target sequence in this assay (P22894 101-467 limits assumed): as above
Series [17] addresses T3, Neutrophil collagenase. Kind of series: Non-competitive inhibition of recombinant human MMP8 (99 to 269 residues) using Mca-Pro-Leu-Gly-Leu-Dpa-Ala-Arg-NH2 expressed in Escherichia coli expression system as substrate incubated for 15 mins followed by substrate addition and measured after 2 to 4 hrs by fluorescence based assay. Conditions: time 2-4.25 hrs.
Target sequence in this assay (P22894 101-467 limits assumed): as above
Series [18] deals with T4, Matrix metalloproteinase-9. Kind of series: Non-competitive inhibition of recombinant human MMP9 (107 to 449 residues) using Mca-Pro-Leu-Gly-Leu-Dpa-Ala-Arg-NH2 expressed in Escherichia coli expression system as substrate by substrate by fluorescence based Dixon plot. Conditions: time 2-4 hrs.
The target in series [19] is T2, 72 kDa type IV collagenase. As to the kind of experiment: Non-competitive inhibition of recombinant human MMP2 (110 to 452 residues) using Mca-Pro-Leu-Gly-Leu-Dpa-Ala-Arg-NH2 expressed in yeast expression system as substrate incubated for 15 mins followed by substrate addition and measured after 2 to 4 hrs by fluorescence based assay. Conditions: time 2-4.25 hrs.
Target sequence in this assay (P08253 110-660 limits assumed): as the sequence (P08253 110-660 limits assumed) above

The target of series [20] is T3, Neutrophil collagenase. Kind of series: Non-competitive inhibition of recombinant human MMP8 (99 to 269 residues) using Mca-Pro-Leu-Gly-Leu-Dpa-Ala-Arg-NH2 expressed in Escherichia coli expression system as substrate by substrate by fluorescence based Lineweaver-Burk plot. Conditions: time 2-4 hrs.
Target sequence in this assay (P22894 101-467 limits assumed): as the sequence (P22894 101-467 limits assumed) above
Series [21] concerns the target T4, Matrix metalloproteinase-9. Kind of series: Non-competitive inhibition of recombinant human MMP9 (107 to 449 residues) using Mca-Pro-Leu-Gly-Leu-Dpa-Ala-Arg-NH2 expressed in Escherichia coli expression system as substrate incubated for 15 mins followed by substrate addition and measured after 2 to 4 hrs by fluorescence based assay. Conditions: time 2-4.25 hrs.

In series [22] the target is T1, Collagenase 3. Kind of series: Non-competitive inhibition of recombinant human MMP13 (104 to 274 residues) using Mca-Pro-Leu-Gly-Leu-Dpa-Ala-Arg-NH2 expressed in Escherichia coli expression system as substrate by fluorescence based Dixon plot assay. Conditions: time 2-4 hrs.
In series [23] the target is T1, Collagenase 3. Kind of series: Non-competitive inhibition of recombinant human MMP13 (104 to 274 residues) using Mca-Pro-Leu-Gly-Leu-Dpa-Ala-Arg-NH2 expressed in Escherichia coli expression system as substrate by fluorescence based Michaelis-Menten analysis assay. The following applies: time 2-4 hrs.
The target of series [24] is T1, Collagenase 3. Kind of series: Non-competitive inhibition of recombinant human MMP13 (104 to 274 residues) using Mca-Pro-Leu-Gly-Leu-Dpa-Ala-Arg-NH2 expressed in Escherichia coli expression system as substrate incubated for 15 mins followed by substrate addition and measured after 2 to 4 hrs by fluorescence based assay. Conditions: time 2-4.25 hrs.
Series [25] concerns the target T4, Matrix metalloproteinase-9. As to the kind of experiment: Non-competitive inhibition of recombinant human MMP9 (107 to 449 residues) using Mca-Pro-Leu-Gly-Leu-Dpa-Ala-Arg-NH2 expressed in Escherichia coli expression system as substrate by substrate by fluorescence based Lineweaver-Burk plot. Conditions: time 2-4 hrs.
Series [26] deals with T2, 72 kDa type IV collagenase. As to the kind of experiment: Non-competitive inhibition of recombinant human MMP2 (110 to 452 residues) using Mca-Pro-Leu-Gly-Leu-Dpa-Ala-Arg-NH2 expressed in yeast expression system as substrate by fluorescence based Michaelis-Menten analysis. The following applies: time 2-4 hrs.
Target sequence in this assay (P08253 110-660 limits assumed): as the sequence (P08253 110-660 limits assumed) above

Calls of active or inactive are those of the source. The rule behind the calls is not given here.

As a reminder, the IC50 is the concentration at which inhibition is half-maximal. On to `O=c1[nH]c2ccccc2c2cc(-c3cccs3)cc(Nc3ccccc3)c12`, for which the IC50 came out at 15.6 µM on Collagenase 3 [1], 6.1 µM in series [4], 18 µM at Neutrophil collagenase [6] and 16.1 µM in series [7]. The outcome in the series on SN-56 [2] was Active. For the same molecule, the Activity is 100% in series [3], “Dose-dependent effect” in the series with SN-56 [5] and “Non-Toxic” in [8].

A word on the inhibition: it is the change of the read-out against control, counted positive when it falls. `CCCCNc1cc(-c2cccs2)cc2c1c(=O)[nH]c1ccccc12`: the inhibition at Collagenase 3 [9] was determined as 54%. For the same molecule, the IC50 in series [4] was 38 µM; on Neutrophil collagenase [6], over 100 µM; in [7] it was over 100 µM. For the same molecule, the results for the Activity result (in the series with SN-56 [5]; in [8]) were “Dose-dependent effect” and “Non-Toxic”, respectively.

As to `O=c1[nH]c2ccccc2c2cc(-c3cccs3)cc(Nc3ccc(F)cc3)c12`, the IC50 was 15.8 µM on Collagenase 3 [1], 6.8 µM in [4], 26.5 µM at Neutrophil collagenase [6] and 20.1 µM in series [7]. Besides, the result in the series with SN-56 [2] was Active. The values for the Activity (in [3]; in the series on SN-56 [5]; in [8]) were 100%, “Dose-dependent effect” and “Non-Toxic”, respectively.

On to `Nc1ccc(-c2cc(Nc3ccccc3)c3c(=O)[nH]c4ccccc4c3c2)cc1`, for which the IC50 was 73 µM on Collagenase 3 [1], 32 µM in [4], 47 µM at Neutrophil collagenase [6] and 28 µM in [7]. Further, the result in the series on SN-56 [2] was Active. Also, the Activity in series [3] was 100%; with SN-56 [5], “Dose-dependent effect”; in series [8], “Non-Toxic”.

For the molecule `Cc1c(C)c2c(c(C)c1O)CCC(C)(C(=O)O)O2` (stereo unspecified), the result in the series on SN-56 [10] was Active.

For the molecule `Nc1cc(-c2cccs2)cc2c1c(=O)[nH]c1ccccc12`, the IC50 (on Collagenase 3 [1]; in series [4]; at Neutrophil collagenase [6]; in series [7]) was over 100 µM throughout. In the series with SN-56 [2], the outcome was Active. Moreover, the values for the Activity (in series [3]; in the series on SN-56 [5]; in [8]) were 100%, “Dose-dependent effect” and “Non-Toxic”, respectively.

For the molecule `COc1ccc(Nc2cc(-c3cccs3)cc3c2c(=O)[nH]c2ccccc23)cc1`, the result (in series [11]; in series [12]; in series [13]; in the series on SN-56 [2]; at Neutrophil collagenase [14]; at Collagenase 3 [15]) was Active. The outcome (at Neutrophil collagenase [16]; in series [18]; on Neutrophil collagenase [20]; at Collagenase 3 [22]; on Collagenase 3 [23]; in series [25]) was Active. Moreover, in [26], the result was Active. The IC50 on Collagenase 3 [1] was 5.4 µM; in series [4] it was 6.05 µM; at Neutrophil collagenase [6], 7 µM; in series [7] it was 5 µM. Besides, the values for the Activity (in series [3]; in the series with SN-56 [5]; in series [8]) were 100%, “Dose-dependent effect” and “Non-Toxic”, respectively. For the same molecule, the inhibition result (at Neutrophil collagenase [17]; in series [19]; in [21]; on Collagenase 3 [24]) was “Active” each time.

Turning to `COc1ccc(Nc2cc(-c3ccccc3)cc3c2c(=O)[nH]c2ccccc23)cc1`, the IC50 is 16.4 µM at Collagenase 3 [1], 60 µM in [4], over 100 µM on Neutrophil collagenase [6] and 22 µM in series [7]. Besides, in the series with SN-56 [2], the outcome was Active. In addition, the Activity in series [3] was 100%; in the series on SN-56 [5], “Dose-dependent effect”; in [8], “Non-Toxic”.

These data come from ChEMBL document CHEMBL4732123, “Discovery of 7-aminophenanthridin-6-one as a new scaffold for matrix metalloproteinase inhibitors with multitarget neuroprotective activity” (Eur J Med Chem, 2021).
